In patent publication US12492403B2, “Aptamers and the use thereof in the treatment of cancer” (FUNDACIÓN PARA LA INVESTIGACIÓN BIOMÉDICA DEL HOSPITAL …, priority 2018, dated 2025):

Legend:
MCF7 cells [1] = assay: MTT activity assay, aptamers transfected with Lipofectamine 2000; assay type: cell-based, human; settings: MCF7, aptamer 250 nM, 48 hours after transfection
Procedure: (§1) FIG. 3. Effect of the aptamers on MTT activity of MCF7 and MDA-MB-231 cells. The cells were seeded in 96-well plates at a density of 10^4 cells/well. After 16-24 hours, they were transfected with aptamers apMNKQ1, apMNKQ2, apMNKQ3, and apMNKQ4 at 250 nM for 48 hours after which MTT activity assays were performed. The bars represent the mean±SEM of 3-6 independent experiments (*p<0.05, **p<0.01, and ***p<0.001 with respect to the control aptamer AT).
(§2) FIGS. 8A-8C. Effect of aptamer apMNKQ2 on MTT activity of breast cell lines. MCF7, MDA-MB-231, and MDA-MB-468 cells were seeded in 96-well plates at a density of 10^4 cells/well. […] The graphs represent the means±SEM of 3 independent experiments (*p<0.05, **p<0.01, and ***p<0.001 with respect to the control AT).
(§3) The Lipofectamine™ 2000 system (Invitrogen, USA) was used to treat cells with the different aptamers. To prepare the DNA-lipofectamine complex, lipofectamine and DNA were separately diluted in opti-MEM (Gibco, USA) and left to incubate at room temperature for 5 minutes. They were then mixed to form lipofectamine-DNA complexes and incubated for 20 minutes at room temperature. Finally, the mixture was added to the cells that had been washed twice with antibiotic-free medium to prevent the interference thereof with lipofectamine. The cells were incubated at 37° C. for 5 hours, after which the reagent was removed and a complete medium was added.
(§4) MTT activity. The cells were seeded in 96-well plates and after having been transfected, the culture medium was removed and 100 μL/well of MTT at 1 mg/ml in culture medium were added. The plates were incubated for 90 minutes in an incubator with a moisture-saturated environment at 37° C. and 5% CO2/[…] and 100 μL/well of a lysis solution (10% SDS and 10 mM HCl) were added for dissolving the crystals. After 48 hours, the reduction of MTT was determined by means of spectrophotometry in Infinite F200 (TECAN, Switzerland) at 540 nm.
(§5) The results were expressed as the percentage of viability with respect to the control or in absorbance units.

MDA-MB-231 cells [2] = assay: as above; assay type: cell-based, human; settings: MDA-MB-231, aptamer 250 nM, 48 hours after transfection
Procedure: as §1, §2, §3, §4, §5

MNK1 = assay: Recognition of the two isoforms of MNK1 by precursor and truncated aptamers; assay type: binding
AKT = assay: Western blot of phosphorylation, combined therapy study; assay type: cell-based, human; settings: MDA-MB-231 and MCF7 cells, 24 hours
Procedure: (§6) FIG. 22A & 22B. Combined therapy studies of apMNKQ2 and everolimus. […] The different antibodies used are indicated.
(§7) Seventy-two hours after treatment, MTT activity was measured.

ribosomal protein S6 = assay: as above; assay type: cell-based, human; settings: MDA-MB-231 and MCF7 cells, 24 hours
Procedure: as §6, §7

eIF4E = assay: as above; assay type: cell-based, human; settings: MDA-MB-231 and MCF7 cells, 24 hours
Procedure: as §6, §7

MCF7 cells [3] = settings: cells with IC50 greater than 1 nM are considered resistant; cited from earlier work
MDA-MB-231 cells [4] = settings: cells with IC50 greater than 1 nM are considered resistant; cited from earlier work
DNase I = settings: 1 unit of DNase I, 5 minutes at 37° C., same assay conditions (Garcia-Recio, Pinto-Diez et al. 2016); cited from earlier work

Molecule: 5′-GGGTGGTATGGCGCGTTGGCCC-3′ (DNA, backbone and methylation of C not given here; further chemistry not fully specified) [apMNKQ4, 22-nucleotide aptamer designed from apMNK2FT]
- effect on MTT activity (MCF7 cells [1]): partial effect
- inhibition of MTT activity (MDA-MB-231 cells [2]): about 15%

Molecule: 5′-TTTTTGGGGTGGGCGGGCGGGGGTGGGGGTGGTATGGCGCGTTGGCCC-3′ (DNA, backbone and methylation of C not given here; further chemistry not fully specified) [apMNK2FT, truncated 48-nucleotide aptamer derived from precursor aptamer apMNK2F]
- recognition of the two isoforms of MNK1 (MNK1a, MNK1b) (MNK1): recognized both isoforms in a similar manner

Molecule: 5′GGGTGGGGGTGGT-3′ (DNA, backbone not given here; further chemistry not fully specified) [apMNKQ3, 13-nucleotide aptamer designed from apMNK2FT]
- effect on MTT activity (MCF7 cells [1]): partial effect
- inhibition of MTT activity (MDA-MB-231 cells [2]): about 15%

Molecule: 5′TGGGGTGGGCGGGCGGGG-3′ (DNA, backbone and methylation of C not given here; further chemistry not fully specified) [apMNKQ1, 18-nucleotide aptamer designed from apMNK2FT based on G-quadruplex formation]
- effect on MTT activity (MCF7 cells [1]): partial effect
- inhibition of MTT activity (MDA-MB-231 cells [2]): 30%

Molecule: CO[C@H]1C[C@@H]2CC[C@@H](C)[C@@](O)(O2)C(=O)C(=O)N2CCCC[C@H]2C(=O)O[C@H]([C@H](C)C[C@@H]2CC[C@@H](OCCO)[C@H](OC)C2)CC(=O)[C@H](C)/C=C(\C)[C@@H](O)[C@@H](OC)C(=O)[C@H](C)C[C@H](C)/C=C/C=C/C=C/1C [everolimus, 40-O-(2-hydroxyethyl) derivative of sirolimus, reference compound]
- phosphorylation of AKT (AKT): increased
- phosphorylation of ribosomal protein S6 (dependent on mTOR activity) (ribosomal protein S6): inhibiting mTOR
- phosphorylation of eIF4E (eIF4E): increased
- sensitivity of the cell line to the drug (MCF7 cells [3]): resistant
- sensitivity of the cell line to the drug (MDA-MB-231 cells [4]): resistant

B1: apMNK2F: precursor (parental) aptamer against MNK1, described in Garcia-Recio, Pinto-Diez et al. 2016 (nucleic acid)
DNA: GCGGATGAAGACTGGTGTGGGGTGGGCGGGCGGGGGTGGGGGTGGTATGGCGCGTTGGCCCTAAATACGAGCAAC
modifications: DNA, backbone and methylation of C not given here; further chemistry not fully specified
- recognition of the two isoforms of MNK1 (MNK1a, MNK1b) (MNK1): higher affinity for MNK1b
- stability (DNase I): 0%
